Data: patent US10479780B2, “Aminopyrazole derivatives” (Chugai Seiyaku Kabushiki Kaisha, priority 2015, dated 2019)

Assays:
Format in all cases: biochemical
human Yes1 enzyme = molecular target: T1, human Yes1 enzyme (Homo sapiens, UniProt P07947); test: Yes1 enzyme inhibitory activity (time-resolved fluorometry, biotinylated peptide phosphorylation); details: biotinylated peptide phosphorylation, read-out: YES_IC50
T1 construct: made in house
Method in brief: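 Inhibition was expressed against a compound-free control to give IC50, using TR-FRET read-out (Eu-cryptate anti-pTyr antibody, streptavidin-XL665).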

human Lck enzyme = molecular target: T2, human Lck enzyme (Homo sapiens, UniProt P06239); test: Lck enzyme inhibitory activity (time-resolved fluorometry, biotinylated peptide phosphorylation); details: biotinylated peptide phosphorylation, read-out: LCK_IC50
T2 construct: purchased Carna Biosciences, Inc. 08-170
T2 sequence (P06239 whole entry): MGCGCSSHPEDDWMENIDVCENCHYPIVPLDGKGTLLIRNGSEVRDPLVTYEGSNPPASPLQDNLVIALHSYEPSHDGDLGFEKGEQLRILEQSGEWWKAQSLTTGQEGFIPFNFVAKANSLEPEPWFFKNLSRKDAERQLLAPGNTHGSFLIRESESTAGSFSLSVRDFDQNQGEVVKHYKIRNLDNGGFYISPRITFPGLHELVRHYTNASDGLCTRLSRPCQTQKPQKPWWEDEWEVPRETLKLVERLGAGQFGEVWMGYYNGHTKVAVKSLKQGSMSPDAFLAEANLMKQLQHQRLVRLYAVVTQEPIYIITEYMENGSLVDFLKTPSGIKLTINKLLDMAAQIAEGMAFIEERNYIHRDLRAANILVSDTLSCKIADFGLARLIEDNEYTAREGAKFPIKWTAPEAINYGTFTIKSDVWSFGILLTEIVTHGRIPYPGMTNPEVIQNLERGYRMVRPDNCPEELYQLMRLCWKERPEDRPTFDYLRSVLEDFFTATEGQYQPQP
Method in brief: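 Readout pairs a europium cryptate-labelled anti-phosphotyrosine antibody with XL665-streptavidin, measured by time-resolved fluorescence. IC50 derived from percent inhibition against untreated controls.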

human Src enzyme = molecular target: T3, human Src enzyme (Homo sapiens, UniProt P12931); test: Src enzyme inhibitory activity (time-resolved fluorometry, biotinylated peptide phosphorylation); details: biotinylated peptide phosphorylation, read-out: SRC_IC50
T3 construct: purchased Carna Biosciences, Inc. 08-173
T3 sequence (P12931 whole entry): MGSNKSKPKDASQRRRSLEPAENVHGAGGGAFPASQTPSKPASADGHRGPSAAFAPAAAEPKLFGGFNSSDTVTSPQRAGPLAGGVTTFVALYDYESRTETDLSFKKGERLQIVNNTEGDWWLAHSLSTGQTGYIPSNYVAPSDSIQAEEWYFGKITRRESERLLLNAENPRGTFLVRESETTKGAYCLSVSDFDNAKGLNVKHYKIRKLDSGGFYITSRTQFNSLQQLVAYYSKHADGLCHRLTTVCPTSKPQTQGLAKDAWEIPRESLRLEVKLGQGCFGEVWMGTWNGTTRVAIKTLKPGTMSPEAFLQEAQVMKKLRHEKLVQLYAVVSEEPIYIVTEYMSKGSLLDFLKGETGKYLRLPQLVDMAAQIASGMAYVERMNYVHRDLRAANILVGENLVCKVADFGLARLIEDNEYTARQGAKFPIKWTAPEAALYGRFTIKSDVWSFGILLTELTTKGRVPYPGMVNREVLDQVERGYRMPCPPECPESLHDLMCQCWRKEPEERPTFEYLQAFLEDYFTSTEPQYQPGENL
Method in brief: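 Compounds were tested for blocking tyrosine phosphorylation of a biotinylated peptide substrate by recombinant human Src. Phosphorylated product was quantified by time-resolved fluorometry using europium cryptate and XL665 conjugates, and IC50 was calculated against the compound-free control.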

T1 sequence (P07947 whole entry): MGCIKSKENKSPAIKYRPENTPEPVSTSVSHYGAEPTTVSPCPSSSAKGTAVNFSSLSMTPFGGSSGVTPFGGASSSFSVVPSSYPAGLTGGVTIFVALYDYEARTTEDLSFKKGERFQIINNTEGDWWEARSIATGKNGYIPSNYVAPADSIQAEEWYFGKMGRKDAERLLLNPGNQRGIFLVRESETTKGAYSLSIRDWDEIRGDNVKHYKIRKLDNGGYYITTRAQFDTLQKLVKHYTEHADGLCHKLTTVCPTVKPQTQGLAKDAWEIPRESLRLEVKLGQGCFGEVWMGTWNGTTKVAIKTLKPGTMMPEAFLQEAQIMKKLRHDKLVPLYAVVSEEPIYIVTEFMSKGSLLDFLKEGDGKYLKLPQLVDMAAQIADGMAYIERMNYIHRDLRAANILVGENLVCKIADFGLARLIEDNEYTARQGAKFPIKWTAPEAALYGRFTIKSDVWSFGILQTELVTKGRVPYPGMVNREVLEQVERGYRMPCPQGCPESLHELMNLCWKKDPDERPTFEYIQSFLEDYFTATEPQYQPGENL

Compound	IC50 (human Yes1 enzyme) [nM]	IC50 (human Lck enzyme) [nM]	IC50 (human Src enzyme) [nM]
Cc1cc2cc(C(=O)c3cnn(-c4cnc(Oc5ccccc5F)cc4C)c3N)[nH]c2cc1NS(=O)(=O)N1CCOCC1 [Example 4-2-108, N-[2-[5-amino-1-[6-(2-fluorophenoxy)-4-methylpyridin-3-yl]pyrazole-4-carbonyl]-5-methyl-1H-indol-6-yl]morpholine-4-sulfonamide]	1	31	94
Cc1cc2cc(C(=O)c3cnn(-c4cnc(Oc5c(F)cccc5F)cc4C)c3N)[nH]c2cc1NS(=O)(=O)N1CCOCC1 [Example 4-2-109, N-[2-[5-amino-1-[6-(2,6-difluorophenoxy)-4-methylpyridin-3-yl]pyrazole-4-carbonyl]-5-methyl-1H-indol-6-yl]morpholine-4-sulfonamide]	1.9	45	210
Cc1cc2cc(C(=O)c3cnn(-c4cnc(Oc5ccccc5Cl)cc4C)c3N)[nH]c2cc1NS(=O)(=O)N1CCOCC1 [Example 4-2-110, N-[2-[5-amino-1-[6-(2-chlorophenoxy)-4-methylpyridin-3-yl]pyrazole-4-carbonyl]-5-methyl-1H-indol-6-yl]morpholine-4-sulfonamide]	8.7	110	250
Cc1cc2cc(C(=O)c3cnn(-c4cnc(Oc5cccc(Cl)c5)cc4C)c3N)[nH]c2cc1NS(=O)(=O)N1CCOCC1 [Example 4-2-111, N-[2-[5-amino-1-[6-(3-chlorophenoxy)-4-methylpyridin-3-yl]pyrazole-4-carbonyl]-5-methyl-1H-indol-6-yl]morpholine-4-sulfonamide]	41	320	690
Cc1cc2cc(C(=O)c3cnn(-c4ccc(Oc5ccccc5F)cc4C)c3N)[nH]c2cc1N1CCCS1(=O)=O [Example 4-2-112, [5-amino-1-[4-(2-fluorophenoxy)-2-methylphenyl]pyrazol-4-yl]-[6-(1,1-dioxo-1,2-thiazolidin-2-yl)-5-methyl-1H-indol-2-yl]methanone]	0.93	8.3	23
Cc1cc2cc(C(=O)c3cnn(-c4ccc(Oc5cccc(F)c5F)cc4C)c3N)[nH]c2cc1N1CCCS1(=O)=O [Example 4-2-113, [5-amino-1-[4-(2,3-difluorophenoxy)-2-methylphenyl]pyrazol-4-yl]-[6-(1,1-dioxo-1,2-thiazolidin-2-yl)-5-methyl-1H-indol-2-yl]methanone]	0.63	7.1	18
Cc1cc2cc(C(=O)c3cnn(-c4c(C)cc(Oc5ccccc5F)cc4F)c3N)[nH]c2cc1N1CCCS1(=O)=O [Example 4-2-114, [5-amino-1-[2-fluoro-4-(2-fluorophenoxy)-6-methylphenyl]pyrazol-4-yl]-[6-(1,1-dioxo-1,2-thiazolidin-2-yl)-5-methyl-1H-indol-2-yl]methanone]	5	16	72
Cc1cc2cc(C(=O)c3cnn(-c4c(C)cc(Oc5cccc(F)c5F)cc4F)c3N)[nH]c2cc1N1CCCS1(=O)=O [Example 4-2-115, [5-amino-1-[4-(2,3-difluorophenoxy)-2-fluoro-6-methylphenyl]pyrazol-4-yl]-[6-(1,1-dioxo-1,2-thiazolidin-2-yl)-5-methyl-1H-indol-2-yl]methanone]	4.1	16	63
Cc1cc2cc(C(=O)c3cnn(-c4cnc(Oc5c(F)cccc5F)cc4C)c3N)[nH]c2cc1N1CCCS1(=O)=O [Example 4-2-116, [5-amino-1-[6-(2,6-difluorophenoxy)-4-methylpyridin-3-yl]pyrazol-4-yl]-[6-(1,1-dioxo-1,2-thiazolidin-2-yl)-5-methyl-1H-indol-2-yl]methanone]	1.5	9.3	43
Cc1cc2cc(C(=O)c3cnn(-c4cnc(Oc5ccccc5Cl)cc4C)c3N)[nH]c2cc1N1CCCS1(=O)=O [Example 4-2-117, [5-amino-1-[6-(2-chlorophenoxy)-4-methylpyridin-3-yl]pyrazol-4-yl]-[6-(1,1-dioxo-1,2-thiazolidin-2-yl)-5-methyl-1H-indol-2-yl]methanone]	0.6	4.8	21
Cc1cc2cc(C(=O)c3cnn(-c4cnc(Oc5cccc(Cl)c5)cc4C)c3N)[nH]c2cc1N1CCCS1(=O)=O [Example 4-2-118, [5-amino-1-[6-(3-chlorophenoxy)-4-methylpyridin-3-yl]pyrazol-4-yl]-[6-(1,1-dioxo-1,2-thiazolidin-2-yl)-5-methyl-1H-indol-2-yl]methanone]	5.7	35	110
Cc1cc2cc(C(=O)c3cnn(-c4cnc(Oc5ccc(F)cc5)cc4C)c3N)[nH]c2cc1N1CCCS1(=O)=O [Example 4-2-119, [5-amino-1-[6-(4-fluorophenoxy)-4-methylpyridin-3-yl]pyrazol-4-yl]-[6-(1,1-dioxo-1,2-thiazolidin-2-yl)-5-methyl-1H-indol-2-yl]methanone]	7.4	23	70
COc1cc2cc(C(=O)c3cnn(-c4c(C)cc(Oc5ccccc5F)cc4F)c3N)[nH]c2cc1N1CCCS1(=O)=O [Example 4-2-120, [5-amino-1-[2-fluoro-4-(2-fluorophenoxy)-6-methylphenyl]pyrazol-4-yl]-[6-(1,1-dioxo-1,2-thiazolidin-2-yl)-5-methoxy-1H-indol-2-yl]methanone]	1	4	28
COc1cc2cc(C(=O)c3cnn(-c4cnc(Oc5c(F)cccc5F)cc4C)c3N)[nH]c2cc1N1CCCS1(=O)=O [Example 4-2-121, [5-amino-1-[6-(2,6-difluorophenoxy)-4-methylpyridin-3-yl]pyrazol-4-yl]-[6-(1,1-dioxo-1,2-thiazolidin-2-yl)-5-methoxy-1H-indol-2-yl]methanone]	0.54	2.1	8
Cc1cc2cc(C(=O)c3cnn(-c4ccc(Oc5ccccc5F)cc4C)c3N)[nH]c2cc1N1CCOCC1 [Example 4-2-122, [5-amino-1-[4-(2-fluorophenoxy)-2-methylphenyl]pyrazol-4-yl]-(5-methyl-6-morpholin-4-yl-1H-indol-2-yl)methanone]	3.6	7.3	34
Cc1cc2cc(C(=O)c3cnn(-c4cnc(Oc5ccccc5F)cc4C)c3N)[nH]c2cc1N1CCOCC1 [Example 4-2-123, [5-amino-1-[6-(2-fluorophenoxy)-4-methylpyridin-3-yl]pyrazol-4-yl]-(5-methyl-6-morpholin-4-yl-1H-indol-2-yl)methanone]	1.9	5.8	37
Cc1cc2cc(C(=O)c3cnn(-c4cnc(Oc5c(F)cccc5F)cc4C)c3N)[nH]c2cc1N1CCOCC1 [Example 4-2-124, [5-amino-1-[6-(2,6-difluorophenoxy)-4-methylpyridin-3-yl]pyrazol-4-yl]-(5-methyl-6-morpholin-4-yl-1H-indol-2-yl)methanone]	4.1	6.9	34
Cc1cc2cc(C(=O)c3cnn(-c4cnc(Oc5c(F)cccc5F)cc4C)c3N)[nH]c2cc1N1CCC(N2CCOCC2)CC1 [Example 4-2-125, [5-amino-1-[6-(2,6-difluorophenoxy)-4-methylpyridin-3-yl]pyrazol-4-yl]-[5-methyl-6-(4-morpholin-4-ylpiperidin-1-yl)-1H-indol-2-yl]methanone]	2.4	2.6	28
CCN(c1cc2[nH]c(C(=O)c3cnn(-c4cnc(Oc5c(F)cccc5F)cc4C)c3N)cc2cc1F)S(C)(=O)=O [Example 4-2-126]	1.3	2	13
Cc1cc(Oc2c(F)cccc2F)ncc1-n1ncc(C(=O)c2cc3cc(F)c(N(C4CCOCC4)S(C)(=O)=O)cc3[nH]2)c1N [Example 4-2-127, N-[2-[5-amino-1-[6-(2,6-difluorophenoxy)-4-methylpyridin-3-yl]pyrazole-4-carbonyl]-5-fluoro-1H-indol-6-yl]-N-(oxan-4-yl)methanesulfonamide]	1.3	3.7	23
Cc1cc(Oc2c(F)cccc2F)ncc1-n1ncc(C(=O)c2cc3cc(F)c(N(CCN4CCOCC4)S(C)(=O)=O)cc3[nH]2)c1N [Example 4-2-128, N-[2-[5-amino-1-[6-(2,6-difluorophenoxy)-4-methylpyridin-3-yl]pyrazole-4-carbonyl]-5-fluoro-1H-indol-6-yl]-N-(2-morpholin-4-ylethyl)methanesulfonamide]	1.2	2.7	8.6
Cc1cc(Oc2ccccc2F)ncc1-n1ncc(C(=O)c2cc3cc(NS(C)(=O)=O)c(OCCN4CCOCC4)cc3[nH]2)c1N [Example 4-2-129]	0.59	1.4	3.2
Cc1cc(Oc2ccccc2F)ncc1-n1ncc(C(=O)c2cc3cc(N(CCN4CCOCC4)S(C)(=O)=O)c(O)cc3[nH]2)c1N [Example 4-2-130]	1.4	4.5	34
Cc1cc(Oc2cccc(F)c2F)cc(F)c1-n1ncc(C(=O)c2cc3cc(F)c(N)cc3[nH]2)c1N [Example 4-3-001, {5-amino-1-[4-(2,3-difluorophenoxy)-2-fluoro-6-methylphenyl]pyrazol-4-yl}-(6-amino-5-fluoro-1H-indol-2-yl)methanone]	4.3	24	92
